Assays:
Hepatitis B virus = test: Antiviral activity against Hepatitis B virus infected human HepG2 cells after 9 days by MTT assay; assay type: functional, organism-based; details: HepG2, 216 h
[1] = test system: Human immunodeficiency virus 1; test: Antiviral activity against HIV1 3B in MT4 cells after 4 days by MTT assay; assay type: functional
HepG2 = test: Cytotoxicity against human HepG2 cells after 9 days by MTT assay; assay type: functional, cell-based; details: HepG2, 216 h
[2] = Therapeutic index, Ratio of TC50 for human HepG2 cells to IC50 for HBV-infected human HepG2 cells; assay type: cell-based; details: HepG2 cells (TC50) and HBV-infected HepG2 cells (IC50)
[3] = Cytotoxicity against MT4 cells at 10 ug/ml after 4 days by MTT assay; assay type: cell-based; details: human, read-out: Inhibition

Nc1ncnc2c1ncn2CCOCP(=O)(OCOC(=O)OC1CCCC1)OCOC(=O)OC1CCCC1.O=C(O)/C=C/C(=O)O
IC50 (Hepatitis B virus): 2.46 µM | TC50 [1]: 22.1 µM | IC50 (HepG2): 3.51 µM

C[C@H](Cn1cnc2c(N)ncnc21)OCP(=O)(OCOC(=O)OC1CCCCC1)OCOC(=O)OC1CCCCC1.O=C(O)/C=C/C(=O)O
IC50 (Hepatitis B virus): 5.94 µM | TC50 [1]: 92.8 µM | selectivity ratio [2]: 15.6 | IC50 (HepG2): 17.5 µM

Nc1ncnc2c1ncn2CCOCP(=O)(O)OCOC(=O)OCc1ccccc1.O=C(O)/C=C/C(=O)O
IC50 (Hepatitis B virus): 43 µM | TC50 [1]: 0.59 10^3uM | selectivity ratio [2]: 13.7 | cytotoxicity at 96 h, 10 ug/ml [3]: 9% | IC50 (HepG2): > 30 µM

C=CCOC(=O)OCOP(=O)(O)COCCn1cnc2c(N)ncnc21.O=C(O)/C=C/C(=O)O
IC50 (Hepatitis B virus): 10.6 µM | TC50 [1]: 0.67 10^3uM | IC50 (HepG2): 23.7 µM

C=CCOC(=O)OCOP(=O)(COCCn1cnc2c(N)ncnc21)OCOC(=O)OCC=C.O=C(O)/C=C/C(=O)O
IC50 (Hepatitis B virus): 8.2 µM | TC50 [1]: 24.6 µM | cytotoxicity at 96 h, 10 ug/ml [3]: 22.8% | IC50 (HepG2): > 30 µM

Nc1ncnc2c1ncn2CCOCP(=O)(OCOC(=O)OCc1ccccc1)OCOC(=O)OCc1ccccc1.O=C(O)/C=C/C(=O)O
IC50 (Hepatitis B virus): 2.15 µM | TC50 [1]: 26.5 µM | selectivity ratio [2]: 12.3 | cytotoxicity at 96 h, 10 ug/ml [3]: 24.9% | IC50 (HepG2): > 30 µM

Nc1ncnc2c1ncn2CCOCP(=O)(OCOC(=O)OC1CCCCC1)OCOC(=O)OC1CCCCC1.O=C(O)/C=C/C(=O)O
IC50 (Hepatitis B virus): 5.33 µM | TC50 [1]: 63.2 µM | selectivity ratio [2]: 11.9 | IC50 (HepG2): 23.1 µM

C=CCOC(=O)OCOP(=O)(CO[C@H](C)Cn1cnc2c(N)ncnc21)OCOC(=O)OCC=C.O=C(O)/C=C/C(=O)O
IC50 (Hepatitis B virus): 7.98 µM | TC50 [1]: 30.9 µM | IC50 (HepG2): 1.61 µM

C[C@H](Cn1cnc2c(N)ncnc21)OCP(=O)(OCOC(=O)OCc1ccccc1)OCOC(=O)OCc1ccccc1.O=C(O)/C=C/C(=O)O
IC50 (Hepatitis B virus): 5.5 µM | TC50 [1]: 70.1 µM | selectivity ratio [2]: 12.7 | cytotoxicity at 96 h, 10 ug/ml [3]: 28.1% | IC50 (HepG2): > 30 µM

C[C@H](Cn1cnc2c(N)ncnc21)OCP(=O)(OCOC(=O)OC1CCCC1)OCOC(=O)OC1CCCC1.O=C(O)/C=C/C(=O)O
IC50 (Hepatitis B virus): 7.2 µM | TC50 [1]: 80.2 µM | cytotoxicity at 96 h, 10 ug/ml [3]: 25.5% | IC50 (HepG2): > 30 µM

Nc1ncnc2c1ncn2CCOCP(=O)(O)O [ADEFOVIR]
IC50 (Hepatitis B virus): 42.1 µM

Nc1nc(=O)n([C@@H]2CS[C@H](CO)O2)cc1F [EMTRICITABINE]
IC50 (HepG2): 27.7 µM

C[C@H](Cn1cnc2c(N)ncnc21)OCP(=O)(O)O [TENOFOVIR ANHYDROUS]
IC50 (Hepatitis B virus): 12.3 µM | TC50 [1]: 0.39 10^3uM | selectivity ratio [2]: 31.4

CC(C)OC(=O)OCOP(=O)(CO[C@H](C)Cn1cnc2c(N)ncnc21)OCOC(=O)OC(C)C.O=C(O)/C=C/C(=O)O [TENOFOVIR DISOPROXIL FUMARATE]
IC50 (Hepatitis B virus): 5.1 µM | TC50 [1]: 55.2 µM | selectivity ratio [2]: 10.8 | IC50 (HepG2): 2.31 µM
